Data taken from US20220071971A1, “MACROCYCLIC COMPOUNDS AND THEIR USE IN THE TREATMENT OF DISEASE” (NOVARTIS AG, priority 2018, published 2022).

Experiments:
delF508-CFTR [1] = biological target: T1, delF508-CFTR (Homo sapiens, UniProt P13569, DEL508-508); assay: Measurement of delF508-CFTR-HRP surface expression in CFBE41o- cells; format: cell-based; settings: for EC50: HRP-tagged delF508-CFTR surface expression, CFBE41o- cells, 24 h with compound, 10-point curve, highest concentration 10 μM; for Emax: CFBE41o-, read-out: DelF508-CFTR-HRP Amax %
T1 construct: expressed in transfected cells
T1 sequence (P13569 with tags, fused parts or gaps DEL508-508): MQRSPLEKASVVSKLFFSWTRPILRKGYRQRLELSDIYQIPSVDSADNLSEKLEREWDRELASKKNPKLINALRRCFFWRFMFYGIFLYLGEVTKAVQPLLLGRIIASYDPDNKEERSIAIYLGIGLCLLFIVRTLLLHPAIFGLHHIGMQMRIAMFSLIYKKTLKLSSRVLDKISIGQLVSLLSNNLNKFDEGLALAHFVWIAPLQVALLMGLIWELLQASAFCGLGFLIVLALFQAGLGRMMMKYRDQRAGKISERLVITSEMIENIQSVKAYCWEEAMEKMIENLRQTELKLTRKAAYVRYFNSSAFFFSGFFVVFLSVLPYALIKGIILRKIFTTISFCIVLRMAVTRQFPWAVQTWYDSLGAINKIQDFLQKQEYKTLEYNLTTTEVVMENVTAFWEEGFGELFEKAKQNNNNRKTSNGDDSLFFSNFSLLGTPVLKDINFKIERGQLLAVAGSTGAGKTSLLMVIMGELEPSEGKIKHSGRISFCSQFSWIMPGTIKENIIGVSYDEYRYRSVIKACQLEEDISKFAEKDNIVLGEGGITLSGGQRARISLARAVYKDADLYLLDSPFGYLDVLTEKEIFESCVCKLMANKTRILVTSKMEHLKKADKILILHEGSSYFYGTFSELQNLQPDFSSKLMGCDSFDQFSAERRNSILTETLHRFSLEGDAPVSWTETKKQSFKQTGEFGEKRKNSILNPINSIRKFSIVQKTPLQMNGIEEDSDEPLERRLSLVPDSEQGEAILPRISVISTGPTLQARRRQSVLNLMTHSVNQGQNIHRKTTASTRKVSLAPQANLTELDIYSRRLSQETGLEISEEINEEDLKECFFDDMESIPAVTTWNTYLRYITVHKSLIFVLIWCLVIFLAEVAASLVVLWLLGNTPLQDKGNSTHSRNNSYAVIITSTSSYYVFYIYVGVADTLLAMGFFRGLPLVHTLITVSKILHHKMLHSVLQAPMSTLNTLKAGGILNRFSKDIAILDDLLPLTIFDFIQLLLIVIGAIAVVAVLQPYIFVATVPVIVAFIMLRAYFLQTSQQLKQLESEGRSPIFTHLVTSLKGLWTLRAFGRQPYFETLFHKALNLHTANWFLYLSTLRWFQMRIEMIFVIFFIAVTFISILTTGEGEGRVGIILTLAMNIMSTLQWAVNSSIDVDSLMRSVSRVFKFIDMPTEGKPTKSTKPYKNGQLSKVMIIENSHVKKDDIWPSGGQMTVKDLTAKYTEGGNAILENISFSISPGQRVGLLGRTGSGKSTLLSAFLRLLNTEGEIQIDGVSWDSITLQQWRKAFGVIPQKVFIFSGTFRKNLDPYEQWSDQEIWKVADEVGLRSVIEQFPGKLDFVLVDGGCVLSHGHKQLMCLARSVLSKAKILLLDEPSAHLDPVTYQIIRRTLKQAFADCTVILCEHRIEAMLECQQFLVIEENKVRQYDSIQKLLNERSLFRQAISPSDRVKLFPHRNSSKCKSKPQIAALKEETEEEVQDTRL
Outline: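 CFBE41o- cells stably expressing delF508-CFTR with HRP in the fourth extracellular loop, induced 48 h with 500 ng/mL doxycycline, then exposed to compound (10-point, 3-fold, top 10 μM, ≤0.5% DMSO) for 24 h at 37° C. Surface HRP read by luminescence with cell-impermeant substrate; EC50 by logistic fit, triplicates, efficacy relative to reference corrector.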

delF508-CFTR [2] = biological target: T1, delF508-CFTR; assay: Measurement of delF508-CFTR functional activity in primary human bronchial epithelial cells (HBECs) using MTECC-24 assay; format: cell-based; settings: for EC50: primary human delF508-CFTR bronchial epithelial cells, 24 hr compound treatment, equivalent short circuit current, forskolin and potentiator, mean of at least two replicates, read-out: MTECC24 CFHBEC EC50; for MTECC24 CFHBEC Amax %: test compound (24 h) with potentiator (S)-3-amino-6-methoxy-N-(3,3,3-trifluoro-2-hydroxy-2-methylpropyl)-5-(trifluoromethyl)picolinamide, relative to 2 μM 3-(6-(1-(2,2-difluorobenzo[d][1,3]dioxol-5-yl)cyclopropane-1-carboxamido)-3-methylpyridin-2-yl)benzoic acid plus 0.5 μM N-(2,4-di-tert-butyl-5-hydroxyphenyl)-4-oxo-1,4-dihydroquinoline-3-carboxamide
Text: Measurement of delF508-CFTR Functional Activity in Primary Human Bronchial Epithelial Cells (HBECs) Using Multi-Transepithelial Clamp Circuit (MTECC-24) Assay
This assay measures the functional activity of the CFTR channel (Chloride ion transport) in patient derived primary human bronchial epithilial cells with forskolin activation and in the presence of the CFTR corrector/potentiator combination.
Primary human delF508-CFTR bronchial epithelial cells were and cultured according to previously established methods (Neuberger, T. et, al., Methods in Molecular Biology, 2011, 741, pp 39-54). Briefly, before thawing the HBEC cells, T25 flasks were coated with 2 mL of 3T3 conditioned media (MTI-GlobalStem, Cat #GSM9100) for at least 12 hours in 37° C. CO2 incubator. 1.7×10^5 cells were seeded into one T25 flask with 5 mL of HBE growth media (BEBM with supplements (Lonza, Cat #CC-3170) with 10 nM of retinoic acid (Sigma, Cat #R-2625) and 1% of PSA (Hyclone, Cat #SV30079.01). Media was changed every day till the cells were 100% confluent. Cells were seeded into T75 flasks (pre-coated with 5 mL of 3T3 conditioned media for more than 12 hrs) at 4.95×10^5 cells/T75 flask in 15 mL of HBE growth media. Flasks were fed everyday with fresh HBE growth media until the cells were confluent. 24-well transwell plates (Corning, Cat #3378) were coated with 3T3 conditioned media (70 μL on top of the filter, 350 μL to the bottom of the well) overnight in the 37° C. CO2 incubator. Cells were seeded in the pre-coated 24-well transwell plates at 1.7×10^5 cell/well with 700 μL of growth media at the bottom of the well and 200 μL of growth media at the top of the filter. After 24 hrs, cells were switched into HBE differentiation media ((DMEM/F12 (Gibco, Cat #11330-032) supplement with 2% Ultroser G (Pall, Cat #15950-017), 2% of Fetal Clone II (Hyclone, Cat #SH30066.03), 0.25% Bovine Brain Extract (Lonza, Cat #CC-4098), 1% of PSA, 2.5 μg/mL of Insulin (Sigma, Cat #19278), 20 nM of Hydrocortisone (Sigma, Cat #H0888), 500 nM of Triiodothyronine (Sigma, Cat #T6397), 2.5 μg/mL of Transferrin (Sigma, Cat #T8158), 250 nM of Ethanolamine (Sigma, Cat #E0135), 1.5 μM of Epinephrine (Sigma, Cat #E4250), 250 nM of Phosphoethanolamine (Sigma, Cat #P0503), 10 nM of retinoic acid)) with 200 μL on top of the filter (apical side) and 700 μL at the bottom of the well (basolateral side). Cells were fed every other day with the differentiation media. After 4 days, cells were exposed to air/liquid interface. Then cells were fed every other day for 4 weeks before fully differentiated.
Cells were washed with 3 mM DTT in PBS at 70 ul/well for 30 min at 37° C. 6 days before the assay. 3 days before the assay, cells were washed again with PBS at 70 ul/well for 30 min at 37° C. Then cells were treated with compound for 24 hrs before the assay.
Following 24 hr treatment with compound, cells were transferred into plates containing 750 ul of assay media on basolateral side and 250 ul on apical side (Assay medium: F-12 Coon's modified, 20 mM HEPES pH7.4 with TRIS Base, No FCS or bicarbonate). The plates wee then transferred to the heated plate compartments (basolateral buffer temperature ˜36.5° C. on the heating block) of the TECC24 system for 45 mins prior to measurements.
Modulators were added sequentially as follows while the TECC24 instrument recorded the equivalent short circuit current (Ieq):
Prior to dilution into assay medium the stocks were as follows: Benzamil stock: 10 mM in DMSO
Forskolin Stock: 50 mM in DMSO
N-(2,4-di-tert-butyl-5-hydroxyphenyl)-1,4-dihydro-4-oxoquinoline-3-carboxamide: 50 mM in DMSO (S)-3-amino-6-methoxy-N-(3,3,3-trifluoro-2-hydroxy-2-methylpropyl)-5-(trifluoromethyl)picolinamide: 50 mM stock 100% DMSO Bumetanide stock: 20 mM in EtOH
The data was normalized using the median signal from wells treated with 0.1% DMSO as a baseline. Curve fitting and EC50 calculations were performed using the following equation: […]

[3] = efficacy relative to reference compound 3-(6-(1-(2,2-difluorobenzo[d][1,3]dioxol-5-yl)cyclopropane-1-carboxamido)-3-methylpyridin-2-yl)benzoic acid

Compound | EC50 (delF508-CFTR [1]) [nM] | DelF508-CFTR-HRP Amax % (delF508-CFTR [1]; [3]) [%] | EC50 (delF508-CFTR [2]) [nM] | MTECC24 CFHBEC Amax % (delF508-CFTR [2]) [%] | Emax (delF508-CFTR [1]; [3]) [%]
3-(4,4-dioxido-2^3-(trifluoromethyl)-9-oxa-4-thia-3,6-diaza-2,5(2,6)-dipyridina-1(1,2)-benzenacyclododecaphane-6-yl)propanoic acid [Compound 98] | 2030 | 719.0 | 100 | 69.2 | –
CC(C)(CO)CN1CCCCCc2ccccc2-c2nc(ccc2C(F)(F)F)NS(=O)(=O)c2cccc1n2 [Compound 27, 6-(3-hydroxy-2,2-dimethylpropyl)-2^3-(trifluoromethyl)-4-thia-3,6-diaza-2,5(2,6)-dipyridina-1(1,2)-benzenacycloundecaphane 4,4-dioxide] | 177 | – | 3.1 | 132.0 | 829
CC(C)(CO)CN1CCCCCCc2ccccc2-c2nc(ccc2C(F)(F)F)NS(=O)(=O)c2cccc1n2 [Compound 28, 6-(3-hydroxy-2,2-dimethylpropyl)-2^3-(trifluoromethyl)-4-thia-3,6-diaza-2,5(2,6)-dipyridina-1(1,2)-benzenacyclododecaphane 4,4-dioxide] | 66 | – | 0.9 | 171.1 | –
O=C(O)CCN1CCCCCc2ccccc2-c2nc(ccc2Cl)NS(=O)(=O)c2cccc1n2 [Compound 89, 3-(2^3-chloro-4,4-dioxido-4-thia-3,6-diaza-2,5(2,6)-dipyridina-1(1,2)-benzenacycloundecaphane-6-yl)propanoic acid] | 1180 | – | 30.9 | 56.7 | 858
O=S1(=O)Nc2ccc(C(F)(F)F)c(n2)-c2ccccc2CCCCCN(CCN2CC(O)C2)c2cccc1n2 [Compound 124, 6-(2-(3-hydroxyazetidin-1-yl)ethyl)-2^3-(trifluoromethyl)-4-thia-3,6-diaza-2,5(2,6)-dipyridina-1(1,2)-benzenacycloundecaphane 4,4-dioxide] | 1640 | – | – | – | 382
CN1CCN(CCN2CCCCCc3ccccc3-c3nc(ccc3C(F)(F)F)NS(=O)(=O)c3cccc2n3)CC1 [Compound 125, 6-(2-(4-methylpiperazin-1-yl)ethyl)-2^3-(trifluoromethyl)-4-thia-3,6-diaza-2,5(2,6)-dipyridina-1(1,2)-benzenacycloundecaphane 4,4-dioxide] | 931 | – | – | – | 162
COC(=O)CNCCN1CCCCCc2ccccc2-c2nc(ccc2C(F)(F)F)NS(=O)(=O)c2cccc1n2 [Compound 126, methyl (2-(4,4-dioxido-2^3-(trifluoromethyl)-4-thia-3,6-diaza-2,5(2,6)-dipyridina-1(1,2)-benzenacycloundecaphane-6-yl)ethyl)glycinate] | 831 | – | – | – | 488
O=C(O)CNCCN1CCCCCc2ccccc2-c2nc(ccc2C(F)(F)F)NS(=O)(=O)c2cccc1n2 [Compound 127, (2-(4,4-dioxido-2^3-(trifluoromethyl)-4-thia-3,6-diaza-2,5(2,6)-dipyridina-1(1,2)-benzenacycloundecaphane-6-yl)ethyl)glycine] | 3630 | – | – | – | 93.6
O=S1(=O)Nc2ccc(C(F)(F)F)c(n2)-c2ccccc2CCCCCN(CC(O)CO)c2cccc1n2 (stereo not drawn) [Compound 128, 6-(2,3-dihydroxypropyl)-2^3-(trifluoromethyl)-4-thia-3,6-diaza-2,5(2,6)-dipyridina-1(1,2)-benzenacycloundecaphane 4,4-dioxide] | 275 | – | – | – | 435
O=S1(=O)Nc2ccc(C(F)(F)F)c(n2)-c2ccccc2CCCCCN(C[C@H](O)[C@@H](O)CO)c2cccc1n2 [Compound 129, 2^3-(trifluoromethyl)-6-((2S,3S)-2,3,4-trihydroxybutyl)-4-thia-3,6-diaza-2,5(2,6)-dipyridina-1(1,2)-benzenacycloundecaphane 4,4-dioxide] | 265 | – | – | – | 506
NCCN1CCCCc2ccccc2-c2nc(ccc2C(F)(F)F)NS(=O)(=O)c2cccc1n2 [Compound 130, 6-(2-aminoethyl)-2^3-(trifluoromethyl)-4-thia-3,6-diaza-2,5(2,6)-dipyridina-1(1,2)-benzenacyclodecaphane 4,4-dioxide] | 2440 | – | – | – | 188
O=S1(=O)Nc2ccc(C(F)(F)F)c(n2)-c2ccccc2CCCCNCCNc2cccc1n2 [Compound 131, 2^3-(trifluoromethyl)-4-thia-3,6,9-triaza-2,5(2,6)-dipyridina-1(1,2)-benzenacyclotridecaphane 4,4-dioxide] | 3900 | – | – | – | 30.7
NCCN1CCCCCc2ccccc2-c2nc(ccc2C(F)(F)F)NS(=O)(=O)c2cccc1n2 [Compound 132, 6-(2-aminoethyl)-2^3-(trifluoromethyl)-4-thia-3,6-diaza-2,5(2,6)-dipyridina-1(1,2)-benzenacycloundecaphane 4,4-dioxide] | 2670 | – | – | – | 259
O=C1c2ccccc2C(=O)N1CCCN1CCCCCc2ccccc2-c2nc(ccc2C(F)(F)F)NS(=O)(=O)c2cccc1n2 [Compound 133, 2-(3-(4,4-dioxido-2^3-(trifluoromethyl)-4-thia-3,6-diaza-2,5(2,6)-dipyridina-1(1,2)-benzenacycloundecaphane-6-yl)propyl)isoindoline-1,3-dione] | 457 | – | – | – | 569
O=C1C2CCCCC2C(=O)N1CCCN1CCCCCc2ccccc2-c2nc(ccc2C(F)(F)F)NS(=O)(=O)c2cccc1n2 (stereo not drawn) [Compound 134, 2-(3-(4,4-dioxido-2^3-(trifluoromethyl)-4-thia-3,6-diaza-2,5(2,6)-dipyridina-1(1,2)-benzenacycloundecaphane-6-yl)propyl)hexahydro-1H-isoindole-1,3(2H)-dione] | 608 | – | – | – | 410
O=C(O)CC[C@H]1CCCCc2ccccc2-c2nc(ccc2C(F)(F)F)NS(=O)(=O)c2cccc(n2)N1 [Compound 135, (R)-3-(4,4-dioxido-2^3-(trifluoromethyl)-4-thia-3,6-diaza-2,5(2,6)-dipyridina-1(1,2)-benzenacycloundecaphane-7-yl)propanoic acid] | 154 | – | – | – | 651
